Drawing on patent US9714231B2, “Pyrrolidine GPR40 modulators” (BRISTOL-MYERS SQUIBB COMPANY, priority 2012, dated 2017), this text covers EC50 for 20 molecules.

Experiment [1] deals with T1, human GPR40 (Homo sapiens, UniProt O14842). As to the kind of experiment: FDSS-based intracellular calcium assay (Human GRP40 in vitro assay). The class given is cell-based. Set-up: 3xFLAG; expressed in transfected cells. The note with it: cells expressing GPR40, intracellular Ca2+ response, FDSS reader; read-out: hGPR40 EC50. A digest of the protocol: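 GPR40-expressing cells, plated overnight in serum-free phenol red-free DMEM, loaded with Fluo-3 in HBSS with 1.7 mM probenecid for 30 min at 37° C. Compounds in DMSO, diluted in assay buffer, added as 3× solutions; intracellular Ca^2+ response read on FDSS.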
In general terms: Calcium assays in cells follow changes in intracellular calcium, usually with a dye or a luminescent sensor.

Experiment [2] concerns the target T1, human GPR40.

Counter-ions that a name gives are not always drawn. Like-named read-outs stand apart in the source and are kept apart here.

T1 sequence (O14842 whole entry): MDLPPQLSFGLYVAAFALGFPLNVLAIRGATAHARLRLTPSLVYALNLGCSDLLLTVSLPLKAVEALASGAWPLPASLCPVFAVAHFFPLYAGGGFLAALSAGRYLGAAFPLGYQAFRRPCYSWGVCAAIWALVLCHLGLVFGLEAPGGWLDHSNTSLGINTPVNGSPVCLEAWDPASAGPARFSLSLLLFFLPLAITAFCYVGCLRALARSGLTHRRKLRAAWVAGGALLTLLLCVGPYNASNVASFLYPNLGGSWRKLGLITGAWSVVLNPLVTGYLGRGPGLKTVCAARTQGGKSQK

Consider `CCOc1ccc(F)c(N2CCC(Oc3ccc(N4C[C@H](C(F)(F)F)C[C@@H]4CC(=O)O)cc3)C(CC(C)C)C2)c1` (single isomer, unassigned) [Example 35, Isomer 2, HCl], for which the values for the EC50 on human GPR40 [1] and at human GPR40 [2] were 0.33 µM and 0.017 µM, respectively.
With `COc1ccc(F)c(N2CCC(Oc3ccc(N4CCCC4CC(=O)O)cc3)CC2)c1` (single isomer, unassigned) [Example 48, Isomer 2, 2-(1-(4-((1-(2-Fluoro-5-methoxyphenyl)piperidin-4-yl)oxy)phenyl)pyrrolidin-2-yl)acetic acid], the EC50 (as a rule, the midpoint of the concentration-response curve) is 1.4 µM on human GPR40 [1] and 2.5 µM on human GPR40 [2].
Consider `COc1ccc(F)c(N2CCC(Oc3ccc(N4C[C@H](OC)C[C@@H]4CC(=O)O)cc3)C(C)C2)c1` (single isomer, unassigned) [Example 52, Isomer 2], for which the EC50 on human GPR40 [1] came out at 0.6 µM; on human GPR40 [2] it was 0.14 µM.
Take `COc1ccc(F)c(N2CCC(Oc3ccc(N4CC(F)(F)C[C@@H]4CC(=O)O)cc3)C(C)C2)c1` (single isomer, unassigned) [Example 53, Isomer 2, HCl]: the EC50 on human GPR40 [1] and at human GPR40 [2] was 0.049 µM each time.
In the case of `COc1ccc(C2CCCC2(C)C)c(N2CCC(Oc3ccc(N4C[C@H](OC)C[C@@H]4CC(=O)O)cc3)CC2)c1` (single isomer, unassigned) [Example 65, Isomer 1], the EC50 on human GPR40 [1] was 0.033 µM; on human GPR40 [2] it was 0.01 µM.
Take `COc1cc(N2CCC(Oc3ccc(N4C[C@H](OC)[C@@H](C)[C@@H]4CC(=O)O)cn3)CC2)c(C2CCCC2(C)C)cn1` (single isomer, unassigned) [Example 151, Isomer 1, HCl]: the concentration giving a half-maximal response (EC50) was 0.038 µM on human GPR40 [1] and 0.004 µM on human GPR40 [2].
`COc1ccc(F)c(N2CCC(Oc3ccc(N4C[C@H](C(F)(F)F)C[C@@H]4CC(=O)O)cc3)CC2)c1` [Example 1, 2-((2R,4R)-1-(4-((1-(2-Fluoro-5-methoxyphenyl)piperidin-4-yl)oxy)phenyl)-4-(trifluoromethyl)pyrrolidin-2-yl)acetic acid, HCl]: the results for the EC50 at human GPR40 [1] and on human GPR40 [2] were 0.21 µM and 0.31 µM, respectively.
Take `COc1ccc(F)c(N2CCC(Oc3ccc(N4C[C@H](OC)C[C@@H]4CC(=O)O)cc3)CC2)c1` [Example 4, 2-((2R,4R)-1-(4-((1-(2-Fluoro-5-methoxyphenyl)piperidin-4-yl)oxy)phenyl)-4-methoxypyrrolidin-2-yl)acetic acid, HCl]: the half-maximal effective concentration (EC50) on human GPR40 [1] worked out at 0.17 µM; at human GPR40 [2], 0.24 µM.
In the case of `COc1ccc(F)c(N2CCC(Cc3ccc(N4C[C@H](C(F)(F)F)C[C@@H]4CC(=O)O)cc3)CC2)c1` [Example 16, 2-((2R,4R)-1-(4-((1-(2-Fluoro-5-methoxyphenyl)piperidin-4-yl)methyl)phenyl)-4-(trifluoromethyl)pyrrolidin-2-yl)acetic acid, HCl], the EC50 amounted to 0.53 µM at human GPR40 [1] and 0.073 µM on human GPR40 [2].
`COc1ccc(F)c(N2CCC(Oc3ccc(N4C[C@H](OC(C)C)C[C@@H]4CC(=O)O)cc3)C(C)C2)c1` (stereo partly drawn) [Example 38, 2-((2R,4R)-1-(4-(((3,4-trans)-1-(2-Fluoro-5-methoxyphenyl)-3-methylpiperidin-4-yl)oxy)phenyl)-4-isopropoxypyrrolidin-2-yl)acetic acid, TFA]: the EC50 at human GPR40 [1] stood at 0.069 µM; at human GPR40 [2] it was 0.073 µM.
The corresponding values for `CCOc1ccc(F)c(N2CCC(Oc3ccc(N4CC(C)(OC)C[C@@H]4CC(=O)O)cc3)C(C)C2)c1` (stereo partly drawn) [Example 47, 2-((2R)-1-(4-(((3,4-trans)-1-(5-Ethoxy-2-fluorophenyl)-3-methylpiperidin-4-yl)oxy)phenyl)-4-methoxy-4-methylpyrrolidin-2-yl)acetic acid, HCl] are 0.17 µM and 0.018 µM.
The corresponding values for `COc1ccc(C)c(N2CCC(Oc3ccc(N4C[C@H](OC)C[C@@H]4CC(=O)O)cc3)CC2)c1` [Example 57, 2-((2R,4R)-4-Methoxy-1-(4-((1-(5-methoxy-2-methylphenyl)piperidin-4-yl)oxy)phenyl)pyrrolidin-2-yl)acetic acid, TFA] are 0.16 µM and 0.083 µM.
With `COc1ccc(C2CC2)c(N2CCC(Oc3ccc(N4C[C@H](OC)C[C@@H]4CC(=O)O)cc3)CC2)c1` [Example 59, 2-((2R,4R)-1-(4-(1-(2-Cyclopropyl-5-methoxyphenyl)piperidin-4-yloxy)phenyl)-4-methoxypyrrolidin-2-yl)acetic acid, TFA], the values for the EC50 at human GPR40 [1] and on human GPR40 [2] were 0.29 µM and 0.038 µM, respectively.
As to `COc1ccc(C2CCCC2)c(N2CCC(Oc3ccc(N4C[C@H](OC)C[C@@H]4CC(=O)O)cc3)CC2)c1` [Example 61, 2-((2R,4R)-1-(4-(1-(2-Cyclopentyl-5-methoxyphenyl)piperidin-4-yloxy)phenyl)-4-methoxypyrrolidin-2-yl)acetic acid], the concentration for a half-maximal effect (EC50) is 0.12 µM on human GPR40 [1] and 0.016 µM on human GPR40 [2].
For the molecule `COc1ccc(CCC(C)(C)C)c(N2CCC(Oc3ccc(N4C[C@H](OC)C[C@@H]4CC(=O)O)cc3)CC2)c1` [Example 62, 2-((2R,4R)-1-(4-(1-(2-(3,3-Dimethylbutyl)-5-methoxyphenyl)piperidin-4-yloxy)phenyl)-4-methoxypyrrolidin-2-yl)acetic acid], the concentration giving a half-maximal response (EC50) stood at 0.089 µM on human GPR40 [1] and 0.013 µM at human GPR40 [2].
The corresponding values for `CCOc1ccc(F)c(N2CCC(Oc3ccc(N4C[C@H](C(F)(F)F)C[C@@H]4CC(=O)O)cc3)CC2)c1` [Example 85, 2-((2R,4R)-1-(4-((1-(5-Ethoxy-2-fluorophenyl)piperidin-4-yl)oxy)phenyl)-4-(trifluoromethyl)pyrrolidin-2-yl)acetic acid] are 0.32 µM and 0.07 µM.
As to `COc1cc(N2CCC(Oc3ccc(N4C[C@H](OC)[C@@H](C)[C@@H]4CC(=O)O)cn3)C(C)C2)c(Cl)cn1` (stereo partly drawn) [Example 91, 2-((2S,3S,4R)-1-(6-(((3,4-trans)-1-(5-Chloro-2-methoxypyridin-4-yl)-3-methylpiperidin-4-yl)oxy)pyridin-3-yl)-4-methoxy-3-methylpyrrolidin-2-yl)acetic acid, HCl], the EC50 on human GPR40 [1] was determined as 0.19 µM; on human GPR40 [2], 0.018 µM.
For the molecule `COc1cc(N2CCC(Oc3ccc(N4C[C@H](OC)C[C@@H]4CC(=O)O)cc3)CC2)c(F)cn1` [Example 96, 2-((2R,4R)-1-(4-((1-(5-Fluoro-2-methoxypyridin-4-yl)piperidin-4-yl)oxy)phenyl)-4-methoxypyrrolidin-2-yl)acetic acid, diethylammonium salt], the values for the EC50 on human GPR40 [1] and at human GPR40 [2] were 0.84 µM and 0.52 µM, respectively.
Consider `COc1cc(N2CCC(Oc3ccc(N4C[C@H](OC)[C@@H](C)[C@@H]4CC(=O)O)cc3F)C(C)C2)c(Cl)cn1` (stereo partly drawn) [Example 98, 2-((2S,3S,4R)-1-(4-(((3,4-trans)-1-(5-Chloro-2-methoxypyridin-4-yl)-3-methylpiperidin-4-yl)oxy)-3-fluorophenyl)-4-methoxy-3-methylpyrrolidin-2-yl)acetic acid], for which the EC50 is 0.102 µM at human GPR40 [1] and 0.1 µM on human GPR40 [2].
For the molecule `COc1cc(N2CCC(Oc3ccc(N4C[C@H](OC)[C@@H](C)[C@@H]4CC(=O)O)cc3F)CC2)c(Cl)cn1` [Example 99, 2-((2S,3S,4R)-1-(4-((1-(5-Chloro-2-methoxypyridin-4-yl)piperidin-4-yl)oxy)-3-fluorophenyl)-4-methoxy-3-methylpyrrolidin-2-yl)acetic acid], the 50% effective concentration (EC50) on human GPR40 [1] was found to be 0.289 µM; at human GPR40 [2] it was 0.29 µM.
